Reference: publication PMC13379085 (PLOS Neglected Tropical Diseases, 2026)

What was measured:
LV82 L. donovani = experiment: Giemsa staining of intracellular L. donovani in BMDMs from wildtype C57BL/6 or lysozyme knockout mice; assay type: cell-based, Leishmania donovani; details: 72-hour incubation
Description: B6.129P2-Lyz2^tm1(cre)Ifo/J mice (stock #004781, herein termed ‘Lys K/O’) were obtained from Jackson Laboratory. This strain has a nuclear-localized Cre recombinase inserted into the first coding ATG of the lysozyme 2 gene (Lyz2) which eliminates endogenous Lyz2 gene function. Wildtype C57BL6/J mice (stock #000664) were obtained as a control.
Bone marrow derived macrophages (BMDMs) were isolated from both mice and cultured as described above in “Image-based Evaluation of Intracellular Anti-Leishmanial Activity”. BMDMs were seeded onto glass cover slips, infected with LV82 L. donovani at a multiplicity of infection of 1:10. Cells were washed to remove extracellular promastigotes and treated with compounds (197, amphotericin B) for a 72-hour incubation. BMDM cells were then washed with phosphate buffered saline, fixed with ice-cold methanol, and stained with Giemsa (5% v/v in water). The cover slips with stained cells are mounted onto glass slides and imaged on EVOS XL (100X, Thermo Fisher Scientific). Leishmania amastigotes per 100 macrophages were determined in a blinded manner.

[1] = tested on: Intracellular L. donovani amastigotes; experiment: Luminescence-based assay of intracellular L. donovani burden in THP-1 macrophages; assay type: cell-based, Leishmania donovani
Protocol: Luminescent strains, L. donovani LV82 expressing firefly luciferase (a kind gift from Dr. Abhay Satoskar, Ohio State University) and L. mexicana (NR-51210, ATCC) expressing renilla luciferase were used to evaluate the effect of the compounds in intracellular and extracellular conditions. Wild-type L. donovani LV82 (ATCC) were used for Giemsa staining based experiments. All parasites were cultured at 25°C and 5% CO2 in M199 media (Corning) supplemented with 10% FBS, 1% Penicillin/Streptomycin, and Hemin (0.01 mg/mL), and used in experiments up to passage 15.
THP-1 cells were seeded in a 96 well plate (25,000 cells/well) overnight then differentiated with 150 nM phorbol 12-myristate 13-acetate (PMA) over 72 hours (S1 Fig). […] Briefly, promastigotes of a known cell density were resuspended in RPMI media (with 10% FBS, 1% P/S and 0.05 mM β-mercaptoethanol) and incubated with adhered THP-1 cells over 18 hours. After infection, cells were washed three times with fresh media to remove extracellular promastigotes.
Infected macrophages were then treated with compounds solubilized in DMSO ranging from 0.1-10 µM in concentrations. After 72 hours of treatment, the viability of the amastigotes within macrophages was determined using Promega firefly luminescence assay (Cat E1500) or Pierce Renilla luciferase assay (Cat 16166) for L. donovani and L. mexicana strains, respectively. Briefly, media was removed, and cells were lysed with the assay lysis buffer. The luciferase substrate was then incubated with the lysed cells for 10 min at room temperature and luminescence of live Leishmania was measured in a white opaque 96 well plate using a Biotek plate reader.

THP-1 macrophages = experiment: MTT viability of THP-1 macrophages (host cell cytotoxicity); assay type: cell-based; details: 72 hr incubation up to 300µM
Protocol: Human monocytes, THP-1 (ATCC, TIB002) were used as host cells for Leishmania infection and to assess drug cytotoxicity. The cells were cultured at 37C, 5% CO2 in RPMI medium (ATCC) supplemented with 10% FBS, 1% Penicillin/Streptomycin and 0.05 mM of β-mercaptoethanol. Cells were used in experiments up to passage 10.
Effect of the compounds on THP-1 cell viability measured using thiazolyl blue tetrazolium bromide which measures cell metabolic activity (MTT). […] Macrophages were then treated with compounds resuspended in RPMI media (1–50 µM) for 24 hours. Media was replaced with thiazolyl blue tetrazolium bromide solubilized in RPMI media (0.5 mg/mL) and incubated at 37°C for 2 hours. The reduced formazan crystals were solubilized with isopropyl alcohol and the absorbance of the resulting solution was measured at 560 nm with a background subtraction at 670 nm. […] This process was repeated with a 72-hr incubation and extended concentration range (1–300 µM) for select compounds.

## O=C(CNCc1cccc(F)c1)Nc1ccc(-n2cc(C(F)(F)F)nc2-c2ccc(-c3ccc(C(F)(F)F)cc3)cc2)cc1 [Compound 197]
LV82 L. donovani
  anti-leishmanial activity in WT and Lys K/O BMDMs: notably decreased in Lys K/O BMDMs
[1]; host-directed effect vs cytotoxicity in THP-1
  Selectivity 24h LC50/ Lum IC50: >20.6
[1]; imidazole series
  intracellular activity (primary screen): retaining potent intracellular activity
THP-1 macrophages
  reduction in macrophage viability: Neither compound had any reduction
